Assay results published in patent US7653490B2, “Nuclear magnetic resonance assembly of chemical entities” (Triad Liquidating Company LLC, priority 2001, dated 2010).
One block for each compound: values may come before it.

Columns and labels:
p38α MAP kinase = p38α MAP kinase (Homo sapiens, UniProt Q16539); assay: Phosphorylation of myelin basic protein (MBP) by p38α; assay type: biochemical
Experimental: The TTM2001.101.A09 bi-ligand compound and the fragments from which it was constructed were tested as inhibitors of p38α enzymatic activity in an assay measuring phosphorylation of myelin basic protein (MBP) by p38α.

p38α [1] = molecular target: T1, p38α (Homo sapiens, UniProt Q16539); assay: Fluorescence polarization displacement of fluorescently tagged staurosporine; assay type: binding
[2] = molecular target: unactivated p38α MAP kinase (Homo sapiens, UniProt Q16539); assay: WaterLOGSY NMR binding screen; details: 10 to 30 micromolar p38α, 0.1 to 1.0 millimolar compound, 4° C.
Excerpt: A library of 29 PBBA structure analogs was screened against unlabeled p38α MAP kinase (p38α) as follows. Samples containing 10 to 30 micromolar concentration of unactivated p38α MAP kinase and 0.1 to 1.0 millimolar concentration of one of the PBBA structure analogs were obtained. The samples were screened using WaterLOGSY with saturations times of 2 s (frequency selective excitation via a train of 232 6 ms π pulses with a GAUSS profile at an 80 Hz RF field strength) with solvent suspension using WATERGATE at 4° C. WaterLOGSY is further described in Dalvit et al. J. Biomol. NMR 21:349-59 (2001) Dalvit et al. J. Magn. Res. B112:282-288 (1996) and Dalvit et al., J. Biomol. NMR 11:437-444 (1998).
A number of PBBA related compounds were screened with WaterLOGSY to identify those that bound to p38α. Of the compounds shown in FIG. 6, two were identified by cross-saturation experiments (with 10 μM unactivated p38α, 1.5 s to 3.0 s saturation with a train of IBURP pulses) to interact with TTM2001.082.A10 as indicated by the arrows.

[3] = molecular target: activated p38α protein kinase (Homo sapiens, UniProt Q16539); assay: 1D saturation transfer difference with selective saturation of antenna methyl of TTM2002.143.A27; assay type: binding; details: 2 s saturation at 3.0 ppm, 4° C.
Excerpt: The 25 compounds from the MOTIF library described in Example IV were screened for proximal binding near the ligand-probe as follows. Samples were obtained containing 100 to 1000 micromolar concentrations of the TTM2002.143.A27 ligand-probe, 10 to 50 micromolar concentrations of activated p38α protein kinase, and one of the 25 compounds at a concentration of 100 to 1000 micromolar. Samples were screened for the presence of second ligands binding proximal to the common ligand-probe by (^1H) 1 dimensional saturation transfer difference experiments using saturations times of 2 s (frequency selective excitation via a train of 232 6 ms τ pulses with a GAUSS profile at an 80 Hz RF field strength) with solvent suspension using WATERGATE at 4° C.

p38α [4] = molecular target: T1, p38α; assay: 1D 1H NMR line broadening; assay type: binding; details: 50 micromolar compound, 10 μM p38α
Experimental: The ability of TTM2001.101.A09 to bind to p38α was determined by comparing the degree of line broadening in 1D ^1H NMR spectra for the compound in the presence of p38α compared to in the absence of p38α.

p38α [5] = molecular target: T1, p38α; assay: WaterLOGSY competition experiments (displacement of PBBA); assay type: binding
Excerpt: A peptide having the sequence […] (SEQ ID NO:1) is a known phosphorylation substrate for p38α as described, for example, in Chen et al. Biochemistry 39:2079-2087 (2000). […] This site is shown in the lower panel of FIG. 7, and is referred to as the SL (specificity ligand) site, since extending a bi-ligand library into this site off of an ATP mimic might provide additional specificity.

Chain of p38α MAP kinase (Q16539 whole entry, the tested form may be a part): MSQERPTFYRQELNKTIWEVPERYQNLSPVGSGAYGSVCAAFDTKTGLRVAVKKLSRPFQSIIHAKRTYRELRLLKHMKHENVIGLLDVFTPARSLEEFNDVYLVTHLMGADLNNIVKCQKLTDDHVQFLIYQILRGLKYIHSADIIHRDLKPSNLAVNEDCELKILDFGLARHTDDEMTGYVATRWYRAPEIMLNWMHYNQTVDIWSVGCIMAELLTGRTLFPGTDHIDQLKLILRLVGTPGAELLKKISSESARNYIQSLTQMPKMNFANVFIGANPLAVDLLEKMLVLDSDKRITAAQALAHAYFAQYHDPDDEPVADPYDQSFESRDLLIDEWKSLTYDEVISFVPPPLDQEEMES
T1 sequence (Q16539 whole entry): as the sequence (Q16539 whole entry, the tested form may be a part) above
Chain of unactivated p38α MAP kinase (Q16539 whole entry): as the sequence (Q16539 whole entry, the tested form may be a part) above
Chain of activated p38α protein kinase (Q16539 whole entry): as the sequence (Q16539 whole entry, the tested form may be a part) above

Compound: CCCCc1ccc(C(=O)O)cc1 [PBBA, p-butyl benzoic acid]
inhibition of phosphorylation of MBP protein by p38α (in words) (p38α MAP kinase): inhibit phosphorylation of MBP protein by p38α
ability to displace fluorescently tagged staurosporine (p38α [1]): not able to displace a fluorescently tagged staurosporine
binding to p38α by WaterLOGSY cross-saturation [2]: showed cross-saturation effects with p38α indicating binding to the protein

Compound: CCCCCc1ccc(N)cc1 [PPA, p-pentyl-aniline]
intensity change of aromatic protons on selective saturation of antenna methyl protons [3]: showed a reduction in the intensity on selective saturation of the methyl protons

Kd (p38α MAP kinase; IC50 corrected for high ATP concentration, read-out: Kd for binding between p38α and compound): ~300 nM
IC50 (p38α MAP kinase; read-out: IC50, inhibition of myelin basic protein phosphorylation by p38α): 1700 nM
fold tighter than either of the starting fragments (p38α MAP kinase; versus starting fragments PBBA and TTM2001.082.B09): greater than 100 fold
line broadening in 1D 1H NMR spectrum in presence of p38α (p38α [4]): significant line-broadening
Compound: O=C(O)c1ccc(CCCCCCSCc2cc(-n3cnc4cc(C(=O)O)ccc43)ccc2F)cc1 [TTM2001.101.A09]

ability to displace PBBA from p38α, WaterLOGSY competition (p38α [5]): could not displace PBBA from p38α
Compound: SEQ ID NO:1: peptide IPTTPITTTYFFFKKK, known phosphorylation substrate for p38α
